Like-named read-outs stand apart in the source and are kept apart here. Where a SMILES comes first, the peptide text is derived from it. Bridges are numbered along the chain shown (N, C = ends). Roman numbers before positions name the chains, in order. Triazole bridges read from a SMILES are 1,4-linked. Where no end group is shown, it is not given here. [ ]: non-standard residue; d: D form. Lys(N3) = [N-]=[N+]=NCCCC[C@H](N)C(=O)O; Cit = NC(=O)NCCC[C@H](N)C(=O)O; d(hCys) = N[C@H](CCS)C(=O)O; PEG3 = NCCOCCOCCOCCC(=O)O; Pra = C#CC[C@H](N)C(=O)O
Legend:
[1] = target: T1, recombinant human GST-MDM2 (Homo sapiens, UniProt Q00987); experiment: Fluorescence polarization binding of Cy5-labeled peptides to MDM2; settings: 20 nM Cy5-labeled peptide, FP buffer pH 7.4, 30 min room temperature; performed twice in technical triplicates
T1 construct: purchased R&D Systems
Procedure: (B) Fluorescence polarization measurement of 20 nM Cy5-labeled peptides binding to recombinant human GST-MDM2.
20 nM of Cy5-labeled peptides were added to dilutions of human MDM2 (Recombinant Human GST -
MDM2/HDM2, R&D Systems) in FP buffer (50 mM tris(hydroxymethyl)aminomethane (Tris, Carl Roth),
150 mM sodium chloride (Sigma), 1 mM EDTA (Sigma), 0.01% (v/v) Tween20 (Sigma), pH 7.4) and
incubated for 30 min at room temperature. Fluorescence polarization was then measured in a Tecan
Spark plate reader (λex = 640 nm, λem = 670 nm). Measurements were performed twice in technical
triplicates. Data was then fit with Prism 10 (GraphPad) using non-linear regression with the following
solution to the quadratic binding equation 1 to obtain Kd:
𝐹𝑃 = 𝐹𝑃 + (𝐹𝑃 − 𝐹𝑃 ) ∗ 𝑐 + 𝑐 + 𝐾 − 𝑝𝑒𝑝𝑡𝑖𝑑𝑒 𝑀𝐷𝑀2 𝑑 𝑝𝑒𝑝𝑡𝑖𝑑𝑒 𝑀𝐷𝑀2

[2] = target: T2, CMKLR1 (Homo sapiens, UniProt Q99788); experiment: Ca2+ flux assay in COS-7_CMKLR1-eYFP_Δ6Gαqi4myr cells; assay type: cell-based; settings: maximum signal over baseline normalized to peptide 1, at least two independent experiments in duplicate
T2 construct: expressed in transfected cells; host or cells: COS-7 (stably transfected, CMKLR1-eYFP + Δ6Gαqi4myr)
T2 sequence (Q99788 1-373): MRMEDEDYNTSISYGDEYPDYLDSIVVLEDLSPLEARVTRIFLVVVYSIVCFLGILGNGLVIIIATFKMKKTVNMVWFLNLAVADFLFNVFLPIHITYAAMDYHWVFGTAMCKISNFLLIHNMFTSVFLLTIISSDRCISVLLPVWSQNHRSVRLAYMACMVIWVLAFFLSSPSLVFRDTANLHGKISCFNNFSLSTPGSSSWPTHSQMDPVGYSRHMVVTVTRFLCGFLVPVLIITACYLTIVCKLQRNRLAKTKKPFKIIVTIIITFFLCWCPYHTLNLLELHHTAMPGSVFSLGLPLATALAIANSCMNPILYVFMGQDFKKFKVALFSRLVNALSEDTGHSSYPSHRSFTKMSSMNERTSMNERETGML
Procedure: (C) Activity of the cyclic chemerin-9 (cC9) derivatives at CMKLR1 tested in a Ca^2+ flux assay. Data points represent the mean ± SEM of at least two independent experiments performed in duplicate.
Calcium flux assay was performed with cells expressing CMKLR1 and the chimeric G protein Δ6Gαqi4myr.
The stably transfected COS-7_CMKLR1-eYFP_ Δ6Gαqi4myr cells were seeded at 25,000 cells per well into poly-ᴅ-lysine-coated 96-well plates (black µCLEAR, Greiner). The next day, cells were incubated with 2.3 µM Fluo-2-AM (Abcam) and 0.06% (v/v) Pluronic-F127 (Sigma) in assay buffer (2.5 mM probenecid (Sigma), 20 mM 4-(2-hydroxyethyl)-1-piperazineethanesulfonic acid (HEPES, Sigma) in Hanks' Balanced Salt Solution (HBSS, Biowest), pH 7.5) for 1 h. This solution was replaced by assay buffer, and basal Ca2+ signal (λex = 485 nm, λem = 525 nm) was measured for 20 s with a Flexstation 3 plate reader (Molecular Devices). Peptide dilutions were added, and the Ca2+ response was measured for 40 s. The maximum signal over baseline was calculated and normalized to peptide 1 (N3-cC9). Non-linear regression was performed using Prism 10 (GraphPad). Experiments were performed in technical duplicates and at least

[3] = target: T3, p53/MDM2 interaction (Homo sapiens, UniProt Q00987); experiment: Inhibition of intracellular p53-HaloTag/NanoLuc-MDM2 BRET; assay type: cell-based; settings: unlabeled peptides, 72 h
T3 construct: host or cells: HEK293 and HEK293_CMKLR1-eYFP
Procedure: Peptides were incubated on HEK293 and HEK293_CMKLR1-eYFP cells for 72 h, before BRET was measured. Nutlin-3a was incubated on HEK293 cells for 24 h before BRET was measured. Mean ± SEM from two independent experiments performed in duplicate. […]
dividing the Cy5-signal (670±30 nm) by the NanoLuc signal (450±20 nm). netBRET was calculated by subtracting the BRET ratio from cells which were incubated without peptide. To calculate the CMKLR1-specific effect, ΔBRET was calculated by subtracting the netBRET value obtained in cells without CMKLR1 from netBRET obtained in cells with CMKLR1. After the initial readout, a kinetic BRET displacement was performed with the same cells. For this, luminescence was measured every 22 s. After 3 min, 10 µM of the small molecule MDM2 antagonist Nutlin-3a (Sigma) was added to the cells and BRET was measured for another 7 min. Experiments were performed in technical duplicates and three independent times. […]
were then incubated with dilutions of unlabeled PMIγ -peptides for 72 h or with Nutlin-3a for 24 h. […] After 10 min incubation, luminescence was measured, and BRET ratio was calculated by dividing the TMR-signal (600±50 nm) by the NanoLuc signal (450±20 nm). netBRET was calculated and normalized to cells without peptide (100%) and cells which were not label ed with HaloTag TMR Ligand (0%). […]

[4] = tested on: HEK293_CMKLR1-eYFP cells; experiment: Resazurin based cell viability assay, peptides; settings: 72 h incubation
Procedure: page 3: […] 15% FCS. Calcium flux assay Calcium flux assay was performed with cells expressing CMKLR1 and the chimeric G protein […]. The stably transfected COS-7_CMKLR1-eYFP_ […] were seeded at 25,000 cells per well into poly-ᴅ-lysine-coated 96-well plates (black μCLEAR, Greiner). The next day, cells were incubated with […] (Sigma), 20 mM 4-(2-hydroxyethyl)-1-piperazineethanesulfonic acid (HEPES, Sigma) in Hanks' Balanced […] This solution was replaced by assay buffer, and basal Ca2+ signal (λex = 485 nm, λem = 525 nm) was measured for 20 s with a Flexstation 3 plate reader (Molecular Devices). Peptide dilutions were added, and the Ca2+ response was measured for 40 s. The maximum signal over baseline was calculated and normalized to peptide 1 (N3-cC9). Non-linear regression was performed using Prism 10 (GraphPad). Experiments were performed in technical duplicates and at least twice. Cell viability assay HEK293 and HEK293_CMKLR1-eYFP cells were seeded at 15,000 cells per well into poly-ᴅ-lysine coated 96-well plates (black μCLEAR, Greiner). […] Cells were then washed and a resazurin-based cell viability assay was performed. […] (1:1) + 15% FBS without phenol red was added to the cells. […] using the fluorescence of resorufin (λex = 550 nm, λem = 595 nm). Data was normalized to cells incubated without peptide (100%) and cells treated with ethanol for 3 min before resazurin addition (0%). Experiments were performed in technical triplicates and at least twice. Fluorescence microscopy Peptide internalization was evaluated by fluorescence microscopy. […] the cells and incubated for 6 h. […] All shown microscopy images are representative of at least two independent experiments. […] Resazurin based cell viability assay of HEK293 and HEK293_CMKLR1-eYFP cells after 72 h incubation with the p53/MDM2 inhibitor Nutlin-3a. […] 100 50 2Cy 3Cy 4Cy 0 -8 -7 -6 -5 -4 […]], log Figure S4. Resazurin based cell viability assay of HEK293_CMKLR1-eYFP cells after 72 h incubation with the PMIγ peptides discussed in this work. Mean ± SEM from two independent experiments performed in triplicates. 15 […]

[5] = printed as (reference) in the column measured D; calibration standard of the focal volume; source not shown; cited from earlier work
From the text: Descriptive statistics of fluorescence correlation spectroscopy (FCS) data from Figure 3. Measurements were obtained in stably transfected HEK293_CMKLR1-eYFP cells as well as endogenously CMKLR1-expressing HMEC-1 and THP-1 cells. SD – standard deviation, GSD – geometric SD factor, IQR – interquartile range applied mean ± SD geometric median (IQR) cell line N° name concentration [nM] mean *÷ GSD [nM] [nM] [nM] HEK29 ...

[6] = read-out: pEC50 ± SEM (converted)

T3 sequence (Q00987 whole entry): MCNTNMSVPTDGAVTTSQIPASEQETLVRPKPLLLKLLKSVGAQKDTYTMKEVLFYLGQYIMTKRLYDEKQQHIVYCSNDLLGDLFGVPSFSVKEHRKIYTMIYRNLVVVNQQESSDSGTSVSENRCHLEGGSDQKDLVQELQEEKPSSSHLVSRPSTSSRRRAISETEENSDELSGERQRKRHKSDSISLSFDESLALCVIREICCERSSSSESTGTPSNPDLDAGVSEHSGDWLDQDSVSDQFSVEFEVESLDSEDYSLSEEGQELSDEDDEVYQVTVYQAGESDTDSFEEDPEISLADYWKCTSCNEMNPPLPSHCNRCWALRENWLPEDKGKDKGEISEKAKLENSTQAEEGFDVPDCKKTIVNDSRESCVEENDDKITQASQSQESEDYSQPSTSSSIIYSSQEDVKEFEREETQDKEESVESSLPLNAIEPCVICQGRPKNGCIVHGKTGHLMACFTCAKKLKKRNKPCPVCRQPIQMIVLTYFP
T1 sequence (Q00987 whole entry): as above

Compound C#CC[C@H](NC(=O)CCOCCOCCOCCNC(=O)[C@H](CCCNC(N)=O)NC(=O)[C@@H](NC(=O)[C@H](CCC(=O)O)NC(=O)CNC(=O)[C@@H](CCCNC(=N)N)NC(=O)[C@@H](CC(C)C)NC(=O)[C@@H](CC(C)C)NC(=O)[C@@H](C)NC(=O)[C@@H](CCC(=O)O)NC(=O)[C@@H](Cc1ccccc1)NC(=O)[C@@H](C)NC(=O)[C@@H](CC(C)C)NC(=O)[C@H]1CCCN1C(=O)[C@@H](Cc1c[nH]c2ccccc12)NC(=O)[C@@H](Cc1c[nH]c2ccccc12)NC(=O)[C@@H](CC(=O)O)NC(=O)CCOCCOCCOCCNC(=O)[C@@H](CCCNC(=N)N)NC(=O)[C@@H](CCCNC(=N)N)NC(=O)[C@@H](CCCNC(=N)N)NC(=O)[C@@H](CCCNC(=N)N)NC(=O)[C@@H](CCCNC(=N)N)NC(=O)[C@@H](CCCNC(=N)N)NC(=O)[C@@H](CCCNC(=N)N)NC(=O)[C@@H](CCCNC(=N)N)NC(=O)[C@@H](CCCNC(=N)N)NC(=O)CCOCCOCCOCCNC(=O)CCCCC[N+]1=C(C=CC=CC=C2N(C)c3ccc(S(=O)(=O)O)cc3C2(C)C)C(C)(C)c2cc(S(=O)(=O)[O-])ccc21)C(C)C)C(N)=O [4Cy] has a Kd [1] of 57.1 ± 21.8 nM.

Work on CC(=O)N[C@@H](CCCCN=[N+]=[N-])C(=O)N[C@@H](Cc1ccc(O)cc1)C(=O)N[C@@H](Cc1ccccc1)C(=O)N1CCC[C@H]1C(=O)N[C@@H]1CCSSC[C@@H](C(=O)O)NC(=O)[C@H](Cc2ccccc2)NC(=O)[C@H](C)NC(=O)[C@H](Cc2ccccc2)NC(=O)[C@H](CCC(N)=O)NC1=O [compound 1] (Ac-[Lys(N3)]YFP[d(hCys)]QFAFC-OH; disulfide 5-10) yielded an EC50 [2, 6] of 3.47 nM.

In the case of CC(=O)N[C@@H](CCCCn1cc(C[C@H](NC(=O)CCOCCOCCOCCNC(=O)[C@H](CCCNC(N)=O)NC(=O)[C@@H](NC(=O)[C@H](CCC(=O)O)NC(=O)CNC(=O)CNC(=O)[C@@H](CCCNC(=N)N)NC(=O)[C@@H](CC(C)C)NC(=O)[C@@H](CC(C)C)NC(=O)[C@@H](C)NC(=O)[C@@H](CCC(=O)O)NC(=O)[C@@H](Cc2ccccc2)NC(=O)[C@@H](C)NC(=O)[C@@H](CC(C)C)NC(=O)[C@H]2CCCN2C(=O)[C@@H](Cc2c[nH]c3ccccc23)NC(=O)[C@@H](Cc2c[nH]c3ccccc23)NC(=O)[C@H](N)CC(=O)O)C(C)C)C(N)=O)nn1)C(=O)N[C@@H](Cc1ccc(O)cc1)C(=O)N[C@@H](Cc1ccccc1)C(=O)N1CCC[C@H]1C(=O)N[C@@H]1CCSSC[C@@H](C(=O)O)NC(=O)[C@H](Cc2ccccc2)NC(=O)[C@H](C)NC(=O)[C@H](Cc2ccccc2)NC(=O)[C@H](CCC(N)=O)NC1=O [compound 2] (I: H-[dD][dW][dW][dP][dL][dA][dF][dE][dA][dL][dL][dR]GGEV[Cit][PEG3][Pra]-NH2 / II: Ac-[Lys(N3)]YFP[d(hCys)]QFAFC-OH; triazole I:19-II:1; disulfide II:5-II:10; N-terminus assumed), the “extent of competition of the p53/MDM2 interaction” value [3] is reported as “neither achieved full competition”, the “displacement of NanoLuc-MDM2/p53-HaloTag BRET” value ([3]; HEK293 versus HEK293_CMKLR1-eYFP) is reported as “CMKLR1-selective effects at extracellular concentrations above 1 μM” and the cytotoxicity [4] is reported as “no signs of cytotoxicity”.

For “I: GSVSHHHHHHGGHHHH[PEG3][dD][dW][dW][dP][dL][dA][dF][dE][dA][dL][dL][dR]GEV[Cit][PEG3][Pra]-NH2 / II: Ac-[Lys(N3)]YFP[d(hCys)]QFAFC (triazole I:35-II:1; disulfide II:5-II:10) [compound 3]”, the EC50 ([2]; read-out: EC50) was 70.6 nM, the EC50 [2, 6] was 70.8 nM and the cytotoxicity [4] was “tolerated slightly worse at concentrations above 1 μM”.

In the case of sulfo-cyanine5 [sulfo-Cy5], the “D in solution, reference” value [5] is listed as 341.6 µm2/s.

From publication PMC12814185, “Receptor-Mediated Shuttling of a D‑Amino Acid Peptide Achieves High Nanomolar Cytosolic Concentrations” (Journal of the American Chemical Society, 2025)
